Molecular target: T1, Vam7p PX domain (Saccharomyces cerevisiae, UniProt P32912)
T1 sequence (P32912 2-122): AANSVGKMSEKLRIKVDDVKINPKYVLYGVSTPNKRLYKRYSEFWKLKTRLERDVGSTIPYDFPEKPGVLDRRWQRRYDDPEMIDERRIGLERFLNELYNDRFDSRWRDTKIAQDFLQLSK
Assay: 1H-15N HSQC NMR titration
Format: binding

Structure (SMILES): CCCCCC(=O)OC[C@H](COP(=O)(O)OC[C@H](N)C(=O)O)OC(=O)CCCCC [C6-PtdSer, 1,2-dicaproyl-sn-glycero-3-[phospho-L-serine]]
- 1H-15N HSQC NMR titration (chemical shift perturbation): NMR titration of soluble dicaproyl (C6)-PtdSer into the PX domain
